US8969313B2, “Methods and compounds for preventing and treating a tumour” (Agency for Science, Technology and Research, priority 2007, dated 2015)

Experiments:
histone modifications = assay: Immunoblotting of bulk histone modifications in HT29 and SW480 cells; type: cell-based, human
Experimental: FIG. 5. Effects of combination of DZNep and TSA on DACT3 and histone modifications. A: DACT3 mRNA expression analysis using Illumina Beadarray in DLD1 cells treated with 5 μM DZNep, 5 μM 5-AzaC, 200 nM TSA or their combinations. The data shown represents Mean±SD of three independent experiments. B: Indicated colorectal cancer cell lines were treated with DZNep, TSA or both. RNA was harvested and subjected to array analysis (1: DCAT2, 2: DACT2, 3: DCAT3, 4: DKK4, 5: DKK3, 6: DKKL1, 7: DKK2, 8: DKK3, 9: DKK1, 10: SFRP4, 11: SFRP2, 12: SFRP5, 13: SFRP3, 14: SFRP1). Changes of expression of known Wnt/β-catenin antagonists are shown. C: Immunoblotting analysis of bulk histone modifications induced by DZNep, TSA or both in HT29 cells and SW480 cells. D: ChIP analysis of indicated the changes of histone marks at the DACT1 and DACT3 loci in HT29 cells untreated (white bars) or treated with DZNep and TSA (black bars). The values represent the normalized enrichments against the changes of a low background region before and after the drug treatment. The data represent Mean±SD of three independent experiments.
Human tissue samples were obtained from Singapore Tissue Network using protocols approved by institutional Review Board of National University of Singapore; informed consent was obtained from each individual who provided the tissues. The colorectal cancer cell lines and non-transformed cell lines used in this study were purchased from the American Type Culture Collection (Manassas, Va.). HCT116 cells with genetic disruption of DNMT1 (DNA methyltransferase 1) and DNMT3B (DNA methyltransferase 3B) (HCT116 DKO) were kindly provided by Dr. Bert Vogelstein (Johns Hopkins University, MD). For drug treatment, cells were seeded the day before the drug treatment. Cells were treated with 5 μM 3-Deazaneplanocin A (DZNep) (obtained from Dr. Victor E. Marquez at National Cancer Institute, USA) or 5 μM 5-aza-2′-deoxycytidine (5-AzaC; Sigma) for 72 hours and Trichostatin A (TSA; Cell Signaling) at 100-200 nM for 24 hours. […]

DACT3, DVL2, β-catenin = assay: Immunoblot analysis of DACT3, DVL2 and β-catenin in SW480 and DLD1 cells; type: cell-based, human; conditions: DZNep 5 μM, TSA 100 nM
Experimental: FIG. 6. Combination of DZNep and TSA results in blockade of Wnt/β-catenin signaling and massive apoptosis in colorectal cancer cells. A: Immunoblot analysis of DACT3, DVL2, total β-catenin, and non-phosphorylated β-catenin (Active-β-catenin) in SW480 and DLD1 cells treated with DZNep (5 μM), TSA (100 nM) or both. B: Immunofluorescent images of DLD1 and SW480 cells treated with DZNep/TSA. β-catenin staining is red, nuclear staining is green (DRAQ5). C: Indicated colorectal cancer cell lines were treated as above; RNA was harvested and subjected to array analysis. Changes of expression of known Wnt/β-catenin target genes were shown using gene clustering program. […] D: Numeric values of data depicted in FIG. 6C (D+T=DZNep+TSA). E: DLD1 and HT29 cells were treated as in A, and cell death was determined by PI staining and FACS analysis. The data represent Mean±SD of three independent experiments. F: HT29 cells were treated as in A, and Caspase 3 activity was measured by FACS analysis. G: HT29 cells were treated as in A, followed by JC-1 staining and FACS analysis.
Human tissue samples were obtained from Singapore Tissue Network using protocols approved by institutional Review Board of National University of Singapore; informed consent was obtained from each individual who provided the tissues. The colorectal cancer cell lines and non-transformed cell lines used in this study were purchased from the American Type Culture Collection (Manassas, Va.). HCT116 cells with genetic disruption of DNMT1 (DNA methyltransferase 1) and DNMT3B (DNA methyltransferase 3B) (HCT116 DKO) were kindly provided by Dr. Bert Vogelstein (Johns Hopkins University, MD). For drug treatment, cells were seeded the day before the drug treatment. Cells were treated with 5 μM 3-Deazaneplanocin A (DZNep) (obtained from Dr. Victor E. Marquez at National Cancer Institute, USA) or 5 μM 5-aza-2′-deoxycytidine (5-AzaC; Sigma) for 72 hours and Trichostatin A (TSA; Cell Signaling) at 100-200 nM for 24 hours. For 5-AzaC treatment, the medium was replaced with freshly added 5-AzaC for every 24 h. For co-treatment of cells with DZNep and TSA, DZNep was added for 24 hours followed by TSA for additional 24 hours for gene expression analysis and 48 hours for FACS analysis.
Immunoblotting was performed as described previously (Tan et al., 2007, supra). The blots were probed with the following antibodies: anti-H3K27me3 (07-449), anti-H3K9me3 (07-442), anti-H3K9/K14 ac (06-599), anti-H3K4me3 (07-473) and anti-active β-catenin(05-665), were purchased from Upstate. Anti-H4K20me3 (ab9053) was from Abcam. Anti-β-catenin (6B3) and anti-H3 (3H1) were from Cell Signaling and anti-DVL2 (sc-8026) was from Santa Cruz. […]

[1] = system: polycomb-repressive complex 2; conditions: Tan et al., 2007; cited from earlier work
in vivo = conditions: BALB/c nude, mouse, ip
[2] = Initial maximum tolerated dose (MTD) study of DZNep
[3] = system: DACT1 and DACT2 promoters; assay: Methylation specific PCR (MSP) of DACT promoters after 5-AzaC; type: cell-based, human; conditions: HCT116 cells
Description: (§1) A: Hierarchical clustering of Wnt inhibitors (upper) and Wnt/β-catenin target genes (lower) in human colorectal tumors (T) and matched normal mucosa (N). White signals in the upper panel indicate above-mean expression; white signals in the lower panel indicate below-mean expression. B: RT-PCR analysis of SFRP1 and DACT1, 2 and 3 from random-selected 8 pairs of human colorectal tumor and matched mucosa. C: Methylation status of SFRP1 and DACT3 in 8 tumors determined by methylation specific PCR (MSP) assay. M1, M2, M3 and M4 represent the examined PCR regions covering the entire CpG island of DACT3 promoter. D: RT-PCR analysis of SFRP1 and DACT1, 2 and 3 in a panel of colorectal cancer cell lines compared to the normal tissue. E: Methylation status of SFRP1 and DACT1, 2 and 3 in colorectal cancer cell lines. F: Determination of methylation status of CpG sites by sequencing of bisulphite-modified DNA from normal and colorectal cancer cell lines. Arrows indicate the transcription start sites. Open cycles represent unmethylated CpGs; closed cycles denote methylated CpGs. […]
The CpG island DNA methylation status was determined by PCR analysis after bisulfited modification and followed by methylation-specific PCR (MSP) and bisulfite genomic sequencing (BGS) (Yoshikawa, H., et al., Nat Genet (2001) 28, 29-35). […]

[4] = system: SFRP1, DACT1, DACT2, DACT3; assay: RT-PCR analysis of SFRP1 and DACT1, 2 and 3 after 5-AzaC; type: cell-based, human; conditions: HCT116 cells, 5-AzaC 5 μM for 3 days
Description: as §1, with “CpGs. G: MSP analysis of DACT1, 2 and 3 promoters in HCT116 cells untreated or treated with 5-AzaC and in HCT116-DNMT1/DNMT3b−/− (DKO) cells. H: RT-PCR analysis of SFRP1 and DACT1, 2 and 3 in HCT116 and DLD1 cells treated with 5-AzaC (5 μM) for 3 days and in DKO cells.” for “CpGs.”

[5] = type: in vivo
Experimental: FIG. 16. […]. The body weight was maintained at >80% in all groups. […].
For the HCT-116 study, nude mice that had received HCT-116 xenografts at day −7 were assigned into 4 groups of 7 animals each, and drug treatment was initiated on day 0 (see FIG. 1 for protocol outline): Group 1—vehicle control for both used compounds (Saline i.p. 3×/week in the morning, MC/Tween p.o. q.d. in the afternoon); Group 2—SAHA (200 mg/kg q.d. p.o. in the afternoon, plus the DZNep vehicle Saline 3/week i.p. in the morning); […]. The study was terminated on Day +14.
The study was conducted as using the protocol described in FIG. 15. The combination study was started using four groups of BALB/c nude mice bearing HCT-116 tumors (n=7 mice/group, initial mean tumor volume 6 days after inoculation: 91-107 mm^3). […]

With `Nc1nccc2c1ncn2C1C=C(CO)C(O)C1O` (stereo not drawn) [DZNep, 5-(4-amino-1H-imidazo[4,5-c]pyridin-1-yl)-3-(hydroxymethyl)-3-cyclopentene-1,2-diol] the “H3K4me3 (bulk histone, Western blot)” value (histone modifications) was “slight decrease”, the “H3K9me3 (bulk histone, Western blot)” value (histone modifications) was “little effect” and the “H3K27me3 and H4K20me3 (bulk histone, Western blot)” value (histone modifications) was “strong reduction”. The DACT3 protein levels (DACT3, DVL2, β-catenin) was “did not cause such changes”, the DVL2 levels (DACT3, DVL2, β-catenin) was “did not cause such changes” and the “effect on polycomb-repressive complex 2 and histone methylation” value [1] was “depletes components of the polycomb-repressive complex 2 and inhibits histone methylation”. For the same compound, the MTD at 5 day (in vivo) was 10 mg/kg, the highest weight loss ([2]; 10 mg/kg group, day 2) was 2.2% and the deaths ([2]; 15 mg/kg group, day 3, in the absence of significant weight loss) was “Two of three mice died”.

In the case of `CC(/C=C/C(=O)NO)=C\[C@@H](C)C(=O)c1ccc(N(C)C)cc1` [TSA, 7-[R-(E,E)]-[4-(dimethylamino)phenyl]-N-hydroxy-4,6-dimethyl-7-oxo-2,4-heptadienamide, reference compound], the DACT3 protein levels (DACT3, DVL2, β-catenin) is reported as “did not cause such changes” and the DVL2 levels (DACT3, DVL2, β-catenin) is reported as “did not cause such changes”.

In the case of `Nc1ncn([C@H]2C[C@H](O)[C@@H](CO)O2)c(=O)n1` [5-AzaC, 5-aza-2′-deoxycytidine], the “methylation at the DACT1 and DACT2 promoters” value [3] is reported as “decreased methylation” and the “expression of SFRP1, DACT1, DACT2 and DACT3” value [4] is reported as “increased expression of SFRP1, DACT1 and DACT2, but not DACT3”.

With `O=C(CCCCCCC(=O)Nc1ccccc1)NO` [SAHA, N′-hydroxy-N-phenyl-octanediamide] the “treatment-related death (TRD)” value ([5]; day 10, body weight 82%, n=7/group) was 1 and the body weight ([5]; day 14, DZNep 5 mg/kg i.p. 3×/week, SAHA 200 mg/kg p.o. q.d., HCT-116 tumour-bearing mice) was 96.8%.
